Assay results reported in US20260250257A1, “ANTIBACTERIAL AND SYNERGISTIC ACTIVE COMPOUND AND USE THEREOF” (EAST CHINA UNIVERSITY OF SCIENCE AND TECHNOLOGY, priority 2023, published 2026).
Converted amounts (≈) assume the structure as drawn.

Key:
Type in all cases: cell-based
[1] = test system: ATCC13883 strain (Klebsiella pneumoniae); assay: Checkerboard antibacterial synergistic activity test with polymyxin E (FIC); design: key: FIC≤0.5 synergy; 0.5–1 additive; 1–2 indifferent; ≥2 antagonism; settings: combined with polymyxin E
Method in brief: (§1)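 Broth checkerboard synergy with colistin; listed dilutions are working solutions, not final well levels. Overnight incubation, 16 h at 37° C.; FIC ≤0.5 denotes synergy, ≥2 antagonism.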

[2] = test system: ATCC19606 strain (Acinetobacter baumannii); assay: as above; design: key: FIC≤0.5 synergy; 0.5–1 additive; 1–2 indifferent; ≥2 antagonism; settings: combined with polymyxin E
Method in brief: as §1

[3] = test system: ATCC25922 strain (Escherichia coli); assay: as above; design: key: FIC≤0.5 synergy; 0.5–1 additive; 1–2 indifferent; ≥2 antagonism; settings: combined with polymyxin E
Method in brief: as §1

[4] = test system: ATCC9027 strain (Pseudomonas aeruginosa); assay: as above; design: key: FIC≤0.5 synergy; 0.5–1 additive; 1–2 indifferent; ≥2 antagonism; settings: combined with polymyxin E
Method in brief: as §1

[5] = test system: ATCC13883 strain (Klebsiella pneumoniae); assay: Broth microdilution, antibacterial activity of the compound used alone; settings: for MIC: read-out: Antibacterial activity of the compound of Formula I, ATCC13883
Text: (§2) The broth microdilution method was used to test the antibacterial effects of the compounds of the present invention against various Gram-negative bacterial strains when used alone.

[6] = test system: ATCC19606 strain (Acinetobacter baumannii); assay: as above; settings: for MIC: read-out: Antibacterial activity of the compound of Formula I, ATCC19606
Text: as §2

[7] = test system: ATCC25922 strain (Escherichia coli); assay: as above; settings: for MIC: read-out: Antibacterial activity of the compound of Formula I, ATCC25922
Text: as §2

[8] = test system: ATCC9027 strain (Pseudomonas aeruginosa); assay: as above; settings: for MIC: read-out: Antibacterial activity of the compound of Formula I, ATCC9027
Text: as §2

Compound	Synergistic activity (FIC value) ATCC13883 [1]	Synergistic activity (FIC value) ATCC19606 [2]	Synergistic activity (FIC value) ATCC25922 [3]	Synergistic activity (FIC value) ATCC9027 [4]	Antibacterial activity of the compound of Formula I, ATCC13883 [5]	Antibacterial activity of the compound of Formula I, ATCC19606 [6]	Antibacterial activity of the compound of Formula I, ATCC25922 [7]	Antibacterial activity of the compound of Formula I, ATCC9027 [8]	MIC [5]	MIC [6]	MIC [7]	MIC [8]
CC(C)=CCOc1ccc(-c2csc(N=C(N)N)n2)cc1 [Compound I-48]	0.51	0.16	0.51	0.75	256 µg/mL	256 µg/mL	256 µg/mL	256 µg/mL				
NC(N)=Nc1nc(-c2ccccc2-c2ccccc2)co1 [Compound I-73]	1.25	0.25	1.25	0.52	256 µg/mL	256 µg/mL	256 µg/mL	256 µg/mL				
NC(N)=Nc1nc(-c2ccccc2Oc2ccc(Cl)cc2Cl)cs1 [Compound I-85]	0.19	0.04	0.26	0.52					256 µg/mL (≈ 675 µM)	256 µg/mL (≈ 675 µM)	256 µg/mL (≈ 675 µM)	256 µg/mL (≈ 675 µM)
CSc1ccccc1-c1csc(N=C(N)N)n1 [Compound I-26]	1.25	0.5	0.63	1.25	256 µg/mL	256 µg/mL	256 µg/mL	256 µg/mL				
NC(N)=Nc1nc(-c2cc3ccccc3o2)cs1 [Compound I-112]	1.25	0.51	1.25	0.52					256 µg/mL (≈ 991 µM)	256 µg/mL (≈ 991 µM)	256 µg/mL (≈ 991 µM)	256 µg/mL (≈ 991 µM)
NC(N)=Nc1nc(-c2cc(Cl)c(O)c(Cl)c2)co1 [Compound I-40]	0.19	0.13	0.52	0.51	256 µg/mL	256 µg/mL	256 µg/mL	256 µg/mL				
CSc1cc2cccc(C)n2c1-c1nc(N=C(N)N)sc1Cl [Compound I-127]	0.09	0.31	0.14	0.06	128 µg/mL	256 µg/mL	128 µg/mL	64 µg/mL				
CNC(=O)c1ccc(-c2ccncn2)c(-c2csc(N=C3NCCCN3)n2)c1 [Compound I-138]	1.25	1.25	1.25	1.25	256 µg/mL	256 µg/mL	256 µg/mL	256 µg/mL				
NC(N)=Nc1nc(-c2cc(OCc3ccccc3)no2)cs1 [Compound I-113]	1.25	1.25	0.53	1.25					128 µg/mL (≈ 406 µM)	256 µg/mL (≈ 812 µM)	128 µg/mL (≈ 406 µM)	64 µg/mL (≈ 203 µM)
NC(N)=Nc1nc(-c2ccccc2Oc2ccc(I)cc2I)cs1 [Compound I-87]	0.16	0.03	0.18	0.28	256 µg/mL	256 µg/mL	256 µg/mL	256 µg/mL				
NC(N)=Nc1nc(-c2ccc3cccnc3c2)cs1 [Compound I-68]	1.25	0.51	1.25	1.25	256 µg/mL	256 µg/mL	256 µg/mL	256 µg/mL				
CC(C)c1cc(-c2coc(N=C(N)N)n2)cc(C(C)C)c1O [Compound I-19]	0.31	0.12	0.38	0.31	256 µg/mL	256 µg/mL	256 µg/mL	256 µg/mL				
CSc1cc2cc(C)ccn2c1-c1csc(N=C(N)N)n1 [Compound I-125]	0.16	0.03	0.18	0.28	256 µg/mL	256 µg/mL	256 µg/mL	256 µg/mL				
Cc1ccc(NC(=O)Nc2cccc(-c3nc(N=C(N)N)sc3C)c2)c(C)c1 [Compound I-132]	0.16	0.03	0.18	0.28	256 µg/mL	256 µg/mL	256 µg/mL	256 µg/mL				
NC(N)=Nc1nc(-c2cccc3cc(Cl)ccc23)co1 [Compound I-64]	0.52	0.52	0.63	1.25	256 µg/mL	256 µg/mL	256 µg/mL	256 µg/mL				
